Measurements taken from US20020137929A1, “1 - (3-heterocyclylphenyl) isothiourea, -isourea, -guanidine and -amidine herbicidal agents” (Intellectual Property Department, BASF Aktiengesellschaft, priority 1998, published 2002).

How the values were obtained:
[1] = system: GLXMAW (Soybean, Williams); assay: Postemergence herbicidal evaluation; type: in vivo, Glycine max, (L.) Merr. cv Williams; details: postemergence
In short: (§1)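 First, seedlings were raised for around two weeks. Next, test material in 50/50 acetone/water containing 0.5% TWEEN 20 was sprayed through a nozzle at 40 psi, equivalent to about 0.0156–0.500 kg/ha. Finally, after 4–5 weeks in the greenhouse, plants were rated 0–9.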

ECHCG (Barnyardgrass) [2] = assay: Preemergence herbicidal evaluation; type: in vivo, Echinochloa crus-galli; details: rated 4-5 weeks after treatment
In short: (§2)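 Steps: mix seeds into potting soil; plant atop ~1 inch soil; spray compound in aqueous acetone (~0.0156-0.500 kg/ha equivalent); maintain in greenhouse with watering; rate visually 0-9 versus control at 4-5 weeks.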

ECHCG (Barnyardgrass) [3] = assay: Postemergence herbicidal evaluation; type: in vivo, Echinochloa crus-galli; details: postemergence
In short: as §1

SETVI (Foxtail, Green) = assay: Postemergence herbicidal evaluation; type: in vivo, Setaria viridis; details: postemergence
In short: as §1

ABUTH (Velvetleaf) = assay: Postemergence herbicidal evaluation; type: in vivo, Abutilon theophrasti; details: postemergence
In short: as §1

[4] = system: ECHORC (Watergrass (Calif.)); assay: Postemergence weed control under flooded paddy conditions; type: in vivo, Echinochloa oryzoides; details: postemergence weeds, 3-4 weeks after treatment
In short: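 Herbicidal effect is judged by eye on a 0–9 scale versus control, 3–4 weeks after dosing. Dosing is into flood water kept 1.5–3 cm over the soil, at about 0.0313–0.500 kg/ha in aqueous/acetone 50/50 v/v, on 3–5 cm weeds and 1.5–2.5-leaf rice seedlings.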

[5] = system: IPOHE (Morningglory, Ivyleaf); assay: Preemergence herbicidal evaluation; type: in vivo, Ipomoea hederacea; details: rated 4-5 weeks after treatment
In short: as §2

AMBEL (Ragweed, Common) = assay: Postemergence herbicidal evaluation; type: in vivo, Ambrosia artemisifolia; details: postemergence
In short: as §1

GALAP (Galium) = assay: Preemergence herbicidal evaluation; type: in vivo, Galium aparine; details: rated 4-5 weeks after treatment
In short: as §2

CASOB (Sicklepod) = assay: Preemergence herbicidal evaluation; type: in vivo, Cassia obtusifolia; details: rated 4-5 weeks after treatment
In short: as §2

[6] = system: TRZAWR (Wheat, Winter, cv Riband); assay: Postemergence herbicidal evaluation; type: in vivo, Triticum aestivum; details: postemergence
In short: as §1

ZEAMX (Corn, Field) = assay: Preemergence herbicidal evaluation; type: in vivo, Zea mays; details: rated 4-5 weeks after treatment
In short: as §2

[7] = system: IPOHE (Morningglory, Ivyleaf); assay: Postemergence herbicidal evaluation; type: in vivo, Ipomoea hederacea; details: postemergence
In short: as §1

[8] = system: CHEAL (Lambsquarters, Common); assay: Preemergence herbicidal evaluation; type: in vivo, Chenopodium album; details: rated 4-5 weeks after treatment
In short: as §2

CCOC(=O)CN1C(=O)CN(C)C1=Nc1cc(-n2c(=O)cc(C(F)(F)F)n(C)c2=O)c(F)cc1Cl [Compound 25, Ethyl 2-{{2-chloro-5-[3,6-dihydro-3-methyl-2,6-dioxo-4-(trifluoromethyl)-1(2H)-pyrimidinyl]-4-fluorophenyl}imino}-3-methyl-5-oxo-1-imidazolidineacetate]
GLXMAW herbicidal rating ([1]; rate 0.0156 kg/ha): 7.0
GLXMAW herbicidal rating ([1]; rate 0.0313 kg/ha): 7.5
GLXMAW herbicidal rating ([1]; rate 0.0625 kg/ha): 8.0
Preemergence herbicidal rating ECHCG (ECHCG (Barnyardgrass) [2]; rate 0.0156 kg/ha): 0.0
Preemergence herbicidal rating ECHCG (ECHCG (Barnyardgrass) [2]; rate 0.0313 kg/ha): 0.0
ECHCG preemergence herbicidal rating (ECHCG (Barnyardgrass) [2]; rate 0.0625 kg/ha): 0.0
ECHCG preemergence herbicidal rating (ECHCG (Barnyardgrass) [2]; rate 0.1250 kg/ha): 0.0
ECHCG preemergence herbicidal rating (ECHCG (Barnyardgrass) [2]; rate 0.2500 kg/ha): 7.0
ECHCG herbicidal rating (ECHCG (Barnyardgrass) [3]; rate 0.0156 kg/ha): 0.0
ECHCG herbicidal rating (ECHCG (Barnyardgrass) [3]; rate 0.0313 kg/ha): 0.0
ECHCG herbicidal rating (ECHCG (Barnyardgrass) [3]; rate 0.0625 kg/ha): 0.0
SETVI herbicidal rating (SETVI (Foxtail, Green); rate 0.0156 kg/ha): 0.0
SETVI herbicidal rating (SETVI (Foxtail, Green); rate 0.0313 kg/ha): 0.0
SETVI herbicidal rating (SETVI (Foxtail, Green); rate 0.0625 kg/ha): 0.0
ABUTH herbicidal rating (ABUTH (Velvetleaf); rate 0.0156 kg/ha): 9.0
ABUTH herbicidal rating (ABUTH (Velvetleaf); rate 0.0313 kg/ha): 9.0
ABUTH herbicidal rating (ABUTH (Velvetleaf); rate 0.0625 kg/ha): 9.0
Herbicidal rating ECHORC ([4]; rate 0.0313 kg/ha): 4.0
Herbicidal rating ECHORC ([4]; rate 0.0625 kg/ha): 6.0
Herbicidal rating ECHORC ([4]; rate 0.1250 kg/ha): 7.0
Herbicidal rating ECHORC ([4]; rate 0.2500 kg/ha): 9.0
Preemergence herbicidal rating IPOHE ([5]; rate 0.0156 kg/ha): 0.0
Preemergence herbicidal rating IPOHE ([5]; rate 0.0313 kg/ha): 0.0
IPOHE preemergence herbicidal rating ([5]; rate 0.0625 kg/ha): 0.0
IPOHE preemergence herbicidal rating ([5]; rate 0.1250 kg/ha): 2.0
IPOHE preemergence herbicidal rating ([5]; rate 0.2500 kg/ha): 5.0
AMBEL herbicidal rating (AMBEL (Ragweed, Common); rate 0.0156 kg/ha): 3.0
AMBEL herbicidal rating (AMBEL (Ragweed, Common); rate 0.0313 kg/ha): 4.0
AMBEL herbicidal rating (AMBEL (Ragweed, Common); rate 0.0625 kg/ha): 9.0
Preemergence herbicidal rating GALAP (GALAP (Galium); rate 0.0156 kg/ha): 0.0
Preemergence herbicidal rating GALAP (GALAP (Galium); rate 0.0313 kg/ha): 0.0
GALAP preemergence herbicidal rating (GALAP (Galium); rate 0.0625 kg/ha): 0.0
GALAP preemergence herbicidal rating (GALAP (Galium); rate 0.1250 kg/ha): 0.0
GALAP preemergence herbicidal rating (GALAP (Galium); rate 0.2500 kg/ha): 0.0
Preemergence herbicidal rating CASOB (CASOB (Sicklepod); rate 0.0156 kg/ha): 0.0
Preemergence herbicidal rating CASOB (CASOB (Sicklepod); rate 0.0313 kg/ha): 0.0
CASOB preemergence herbicidal rating (CASOB (Sicklepod); rate 0.0625 kg/ha): 0.0
CASOB preemergence herbicidal rating (CASOB (Sicklepod); rate 0.1250 kg/ha): 2.0
CASOB preemergence herbicidal rating (CASOB (Sicklepod); rate 0.2500 kg/ha): 3.0
TRZAWR herbicidal rating ([6]; rate 0.0156 kg/ha): 2.0
TRZAWR herbicidal rating ([6]; rate 0.0313 kg/ha): 3.0
TRZAWR herbicidal rating ([6]; rate 0.0625 kg/ha): 3.0
Preemergence herbicidal rating ZEAMX (ZEAMX (Corn, Field); rate 0.0156 kg/ha): 0.0
Preemergence herbicidal rating ZEAMX (ZEAMX (Corn, Field); rate 0.0313 kg/ha): 0.0
ZEAMX preemergence herbicidal rating (ZEAMX (Corn, Field); rate 0.0625 kg/ha): 6.0
ZEAMX preemergence herbicidal rating (ZEAMX (Corn, Field); rate 0.1250 kg/ha): 8.0
ZEAMX preemergence herbicidal rating (ZEAMX (Corn, Field); rate 0.2500 kg/ha): 9.0
IPOHE herbicidal rating ([7]; rate 0.0156 kg/ha): 9.0
IPOHE herbicidal rating ([7]; rate 0.0313 kg/ha): 9.0
IPOHE herbicidal rating ([7]; rate 0.0625 kg/ha): 9.0
Preemergence herbicidal rating CHEAL ([8]; rate 0.0156 kg/ha): 7.0
Preemergence herbicidal rating CHEAL ([8]; rate 0.0313 kg/ha): 9.0
CHEAL preemergence herbicidal rating ([8]; rate 0.0625 kg/ha): 9.0
CHEAL preemergence herbicidal rating ([8]; rate 0.1250 kg/ha): 9.0
CHEAL preemergence herbicidal rating ([8]; rate 0.2500 kg/ha): 9.0
